43 compounds from EP2818471A1, “Nitrogen bicyclic compounds as inhibitors for Scyl1 and Grk5” (Max-Planck-Gesellschaft zur Förderung der Wissenschaften …, priority 2013, dated 2014) can be followed below.

Structures are written as SMILES.

The test deals with beta-TC6 cells. Kind of test: Insulin HTRF assay, relative activity Ar normalized to sunitinib. The conditions noted are these: Mus musculus, normalized to positive control sunitinib (5 µM = 100%), Table 10. It counts as cell-based. The gist of the method:
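Relative activity Ar was scaled between 0% and 100% controls, with sunitinib at 5 µM f.c. as reference. Insulin released by beta-TC6 cells was quantified by sandwich HTRF (Eu-cryptate/XL665 antibodies, 120 min RT). Cells had been seeded 24 or 48 h, then treated 2–4 h at 37°C in induction buffer, 0.5% DMSO.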
A general note: Time-resolved FRET reads energy transfer from a long-lived donor to a nearby acceptor.
`Nc1cccc(-c2cn3c(NC(=O)Cc4ccc(F)c(F)c4)cnc3cn2)c1` [compound 277, N-[6-(3-aminophenyl)imidazo[1,2-a]pyrazin-3-yl]-2-(3,4-difluorophenyl)acetamide]: the Emax – broadly, the size of the effect at its maximum, as opposed to the concentration needed – was 10 to 20%. Then `COc1ccc(CNc2ccc3ncc(-c4ccc5[nH]ccc5c4)n3n2)cc1` [compound 37, 3-(1H-indol-5-yl)-N-[(4-methoxyphenyl)methyl]imidazo[1,2-b]pyridazin-6-amine], with 20 to 50%; and `COc1cc(-c2cnc3cnc(-c4ccc5c(c4)OCO5)cn23)ccc1O` [compound 394, 4-[6-(1,3-benzodioxol-5-yl)imidazo[1,2-a]pyrazin-3-yl]-2-methoxy-phenol], with 20 to 50%.

On to `COc1ccc(-c2ccc3ncc(-c4cccc(Cl)c4)n3n2)c(C)c1` [compound 125, 3-(3-chlorophenyl)-6-(4-methoxy-2-methyl-phenyl)imidazo[1,2-b]pyridazine], for which the Emax lay within 10 to 20%. Then `c1cc(-c2ccc3nnc(-c4ccc5c(c4)OCO5)n3c2)co1` [compound 171, 3-(1,3-benzodioxol-5-yl)-6-(3-furyl)-[1,2,4]triazolo[4,3-a]pyridine], with 50 to 100%; and `CC(=O)Nc1ccc(-c2cnc3ccc(-c4ccc5c(c4)OCO5)nn23)cc1` [compound 148, N-[4-[6-(1,3-benzodioxol-5-yl)imidazo[1,2-b]pyridazin-3-yl]phenyl]acetamide], with not below 100%; and `O=C(NC1CCCC1)c1ccc(-c2cn3c(-c4ccc(CO)cc4)cnc3cn2)cc1` [compound 375, N-cyclopentyl-4-[3-[4-(hydroxymethyl)phenyl]imidazo[1,2-a]pyrazin-6-yl]benzamide], with 20 to 50%. Then `COc1ccc(-c2cnc3ccc(NCc4ccccn4)nn23)cc1OC` [compound 47, 3-(3,4-dimethoxyphenyl)-N-(2-pyridylmethyl)imidazo[1,2-b]pyridazin-6-amine], with 20 to 50%; and `COc1cc(-c2ccc3nnc(-c4ccc5nccnc5c4)n3c2)ccc1O` [compound 244, 2-methoxy-4-(3-quinoxalin-6-yl-[1,2,4]triazolo[4,3-a]pyridin-6-yl)phenol], with 50 to 100%. Then `COc1cc(-c2ccc3ncc(-c4cccs4)n3n2)ccc1O` [compound 157, 2-methoxy-4-[3-(2-thienyl)imidazo[1,2-b]pyridazin-6-yl]phenol], with 20 to 50%; and `O=C(c1ccc(-c2ccc3nnc(-c4cccc(C(F)(F)F)c4)n3c2)cc1)N1CCOCC1` [compound 212, morpholino-[4-[3-[3-(trifluoromethyl)phenyl]-[1,2,4]triazolo[4,3-a]pyridin-6-yl]phenyl]methanone], with 20 to 50%; and `CC(=O)Nc1ccc(-c2cnc3ccc(-c4ccc(N5CCOCC5)cc4)nn23)cc1` [compound 147, N-[4-[6-(4-morpholinophenyl)imidazo[1,2-b]pyridazin-3-yl]phenyl]acetamide], with not below 100%. In the case of `c1ccc(Oc2cccc(-c3ccc4nnc(-c5ccncc5)n4c3)c2)cc1` [compound 181, 6-(3-phenoxyphenyl)-3-(4-pyridyl)-[1,2,4]triazolo[4,3-a]pyridine], the Emax lay within 20 to 50%. For `Clc1ccc(-c2cnc3cnc(-c4ccsc4)cn23)cc1` [compound 348, 3-(4-chlorophenyl)-6-(3-thienyl)imidazo[1,2-a]pyrazine] the value was 50 to 100%; for `Cc1cccc(-c2cn3c(-c4ccc(CCC(=O)O)cc4)cnc3cn2)c1C` [compound 334, 3-[4-[6-(2,3-dimethylphenyl)imidazo[1,2-a]pyrazin-3-yl]phenyl]propanoic acid], 50 to 100%; for `c1cnn2c(-c3ccc4c(c3)CCO4)cnc2c1` [compound 80, 3-(2,3-dihydrobenzofuran-5-yl)imidazo[1,2-b]pyridazine], 10 to 20%. For `COc1cc(-c2cnc3ccc(-c4cccc(OC(F)(F)F)c4)nn23)ccc1O` [compound 138, 2-methoxy-4-[6-[3-(trifluoromethoxy)phenyl]imidazo[1,2-b]pyridazin-3-yl]phenol] the value was 10 to 20%; for `COc1ccc(-c2ccc3nnc(-c4ccccc4)n3c2)c(C)c1` [compound 166, 6-(4-methoxy-2-methyl-phenyl)-3-phenyl-[1,2,4]triazolo[4,3-a]pyridine], not below 100%.

`Clc1cccc(-c2nnc3ccc(-c4cncc5ccccc45)cn23)c1` [compound 205, 4-[3-(3-chlorophenyl)-[1,2,4]triazolo[4,3-a]pyridin-6-yl]isoquinoline] returned an Emax of 50 to 100%.

As to `Cn1ccc2cc(-c3cnc4cnc(-c5cccc(C(N)=O)c5)cn34)ccc21` [compound 401, 3-[3-(1-methylindol-5-yl)imidazo[1,2-a]pyrazin-6-yl]benzamide], the Emax fell in the range of 20 to 50%.

In the case of `c1coc(-c2cn3c(-c4ccsc4)cnc3cn2)c1` [compound 319, 6-(2-furyl)-3-(3-thienyl)imidazo[1,2-a]pyrazine], the Emax is 20 to 50%. Then `CSc1ccc(-c2cn3c(-c4cccc(CO)c4)cnc3cn2)cc1` [compound 377, [3-[6-(4-methylsulfanylphenyl)imidazo[1,2-a]pyrazin-3-yl]phenyl]methanol], with 20 to 50%; and `CN(C)c1ccc(-c2cnc3cnc(-c4ccc(C(=O)N5CCOCC5)cc4)cn23)cc1` [compound 291, [4-[3-(4-dimethylaminophenyl)imidazo[1,2-a]pyrazin-6-yl]phenyl]-morpholino-methanone], with 20 to 50%. Turning to `COc1cc(OC)cc(-c2cn3c(-c4cccs4)cnc3cn2)c1` [compound 426, 6-(3,5-dimethoxyphenyl)-3-(2-thienyl)imidazo[1,2-a]pyrazine], the Emax fell in the range of 20 to 50%.

The compound `CCOc1cccc(-c2cn3c(-c4ccc(O)c(OC)c4)cnc3cn2)c1` [compound 395, 4-[6-(3-ethoxyphenyl)imidazo[1,2-a]pyrazin-3-yl]-2-methoxy-phenol] yielded an Emax of 50 to 100%. Then `OCc1ccc(-c2ccc3ncc(-c4cccnc4)n3n2)cc1` [compound 106, [4-[3-(3-pyridyl)imidazo[1,2-b]pyridazin-6-yl]phenyl]methanol], with 20 to 50%; and `c1cc2cc(-c3ccc4nnc(-c5cscn5)n4c3)ccc2[nH]1` [compound 229, 4-[6-(1H-indol-5-yl)-[1,2,4]triazolo[4,3-a]pyridin-3-yl]thiazole], with 50 to 100%; and `CCOc1ccc(-c2cnc3cccnn23)cc1` [compound 85, 3-(4-ethoxyphenyl)imidazo[1,2-b]pyridazine], with 10 to 20%.

With `CN(C)CCNC(=O)c1ccc(-c2cn3c(-c4ccc(N(C)C)cc4)cnc3cn2)cc1` [compound 289, N-(2-dimethylaminoethyl)-4-[3-(4-dimethylaminophenyl)imidazo[1,2-a]pyrazin-6-yl]benzamide], the Emax lay in the range of 50 to 100%. Consider `COc1cccc(CC(=O)Nc2cnc3cnc(-c4ccc5[nH]ccc5c4)cn23)c1` [compound 254, N-[6-(1H-indol-5-yl)imidazo[1,2-a]pyrazin-3-yl]-2-(3-methoxyphenyl)acetamide], for which the Emax is 10 to 20%. As to `CC(C(=O)Nc1cnc2cnc(-c3ccc4c(c3)OCO4)cn12)c1ccccc1` (stereo not shown) [compound 270, N-[6-(1,3-benzodioxol-5-yl)imidazo[1,2-a]pyrazin-3-yl]-2-phenyl-propanamide], the Emax lay in the range of 20 to 50%. `CC(C)c1cccc(-c2ccc3nnc(-c4cccnc4)n3c2)c1` [compound 183, 6-(3-isopropylphenyl)-3-(3-pyridyl)-[1,2,4]triazolo[4,3-a]pyridine] returned an Emax of 50 to 100%. For `Clc1cccc(-c2nnc3ccc(-c4cccnc4)cn23)c1` [compound 200, 3-(3-chlorophenyl)-6-(3-pyridyl)-[1,2,4]triazolo[4,3-a]pyridine] the value was 50 to 100%; for `COc1ccc(-c2cnc3ccc(NCCCO)nn23)cc1` [compound 41, 3-[[3-(4-methoxyphenyl)imidazo[1,2-b]pyridazin-6-yl]amino]propan-1-ol], 10 to 20%; for `CC(=O)Nc1cccc(-c2cnc3ccc(-c4cccnc4)nn23)c1` [compound 109, N-[3-[6-(3-pyridyl)imidazo[1,2-b]pyridazin-3-yl]phenyl]acetamide], 10 to 20%.

Compound `CCCNc1ccc2ncc(-c3cccc(/C=C/C(=O)O)c3)n2n1` [compound 21, (E)-3-[3-[6-(propylamino)imidazo[1,2-b]pyridazin-3-yl]phenyl]prop-2-enoic acid] gave an Emax of 10 to 20%. For the compound `c1csc(-c2cn3c(-c4cccs4)cnc3cn2)c1` [compound 424, 3,6-bis(2-thienyl)imidazo[1,2-a]pyrazine], the Emax lay within 50 to 100%. Compound `O=C(Nc1cnc2cnc(-c3ccc4ccccc4c3)cn12)C1CCOC1` (stereo not shown) [compound 275, N-[6-(2-naphthyl)imidazo[1,2-a]pyrazin-3-yl]tetrahydrofuran-3-carboxamide] showed an Emax of 10 to 20%. `OCc1cccc(-c2ccc3nnc(-c4ccccn4)n3c2)c1` [compound 248, [3-[3-(2-pyridyl)-[1,2,4]triazolo[4,3-a]pyridin-6-yl]phenyl]methanol]: the Emax lay within 20 to 50%. Then `Nc1ccc(-c2cn3c(-c4cccs4)cnc3cn2)cn1` [compound 427, 5-[3-(2-thienyl)imidazo[1,2-a]pyrazin-6-yl]pyridin-2-amine], with 20 to 50%; and `CCC(CO)Nc1ccc2ncc(-c3ccccc3Cl)n2n1` (stereo not shown) [compound 9, 2-[[3-(2-chlorophenyl)imidazo[1,2-b]pyridazin-6-yl]amino]butan-1-ol], with 10 to 20%; and `CS(=O)(=O)Nc1cccc(-c2cn3c(-c4ccc5ncccc5c4)cnc3cn2)c1` [compound 444, N-[3-[3-(6-quinolyl)imidazo[1,2-a]pyrazin-6-yl]phenyl]methanesulfonamide], with 20 to 50%. Compound `CSc1ccccc1-c1cnc2cccnn12` [compound 86, 3-(2-methylsulfanylphenyl)imidazo[1,2-b]pyridazine] registered an Emax of 50 to 100%.
